Here are results for 24 molecules from patent US20240408088A1, “PYRAZOLE DERIVATIVE, AND PREPARATION METHOD THEREFOR AND USE THEREOF IN MEDICINE” (Abbisko Therapeutics Co., Ltd., priority 2021, published 2024).

The first assay deals with HCT 116 MTAP knockout cells. The assay is described as follows: Human colon cancer HCT116 cell proliferation inhibition test (MTAP knockout cells, CellTiter-Glo, 6 days). In kind it is cell-based.
Conditions: not given
The method, then: (§1) • 1. HCT 116 MTAP knockout and MTAP wild-type cells were plated in 96-well flat bottom 5 plates, and cultured overnight with McCoy's 5A medium containing […]+1% penicillin-streptomycin at 37° C. and 5% CO2. • 2. On the next day, the compound was dissolved with DMSO, diluted with DMSO and medium successively and transferred to the cell plate. The final concentration of the compound was 10 μM, the compound was diluted 4 times, with 9 concentration gradients, and DMSO control was added. • 3. Cells that have not been treated with the compound were removed. CellTiter-Glo Luminescent Cell Viability Assay (Promega) was used to detect cell viability, the operation was performed with reference to the package insert of the kit, and then the cell plate was placed on EnVision Multilabel Reader to detect the cold light signal. • 4. Meanwhile, the cell plate treated with the compound was cultured at 37° C. and 5% CO2 for 6 consecutive days. • 5. Then, CellTiter-Glo was also used to detect cell viability. • 6. Finally, the four-parameter dose-response curve module of GraphPad Prism v 9.2.0 software was used to plot the dose-response curve and calculate the IC50 for proliferation inhibition (unit: nM).
(In general: Cellular ATP, detected with luciferase, serves as a proxy for viable cell number.)
Regarding `Cn1ncc(-c2cc(C#N)c3c(=O)[nH]nc(CN)c3c2)c1-c1c(F)cc2ccccc2c1C#N` (atropisomer, axis not shown; (M)) [Example 5, (M)-1-(aminomethyl)-7-(5-(1-cyano-3-fluoronaphthalen-2-yl)-1-methyl-1H-pyrazol-4-yl)-4-oxo-3,4-dihydrophthalazine-5-carbonitrile], the IC50 (commonly the concentration needed to halve the response being measured) was determined as 0.016 µM. `Cn1ncc(-c2cc(C#N)c3c(=O)[nH]nc(CN)c3c2)c1-c1c(F)cc2ccccc2c1C#N` (atropisomer, axis not shown; (P)) [Example 4, (P)-1-(aminomethyl)-7-(5-(1-cyano-3-fluoronaphthalen-2-yl)-1-methyl-1H-pyrazol-4-yl)-4-oxo-3,4-dihydrophthalazine-5-carbonitrile]: half-maximal inhibition (IC50) was put at 0.188 µM.

Still in this assay, the particulars now being: Homo sapiens, HCT-116, 144 h.
`Cn1ncc(-c2cc(C3CC3)c3c(=O)[nH]nc(CN)c3c2)c1-c1c(F)cc2ccccc2c1C#N` [Example 3, 2-(4-(4-(aminomethyl)-8-cyclopropyl-1-oxo-1,2-dihydrophthalazin-6-yl)-1-methyl-1H-pyrazol-5-yl)-3-fluoro-1-naphthalenenitrile] came in with an IC50 of 0.029 µM.

`C#Cc1cc(-c2cnn(C)c2-c2c(F)c(Cl)cc(OC3CC3)c2C#N)cc2c(CN)n[nH]c(=O)c12` [Example 7, 2-(4-(4-(aminomethyl)-8-ethynyl-1-oxo-1,2-dihydrophthalazin-6-yl)-1-methyl-1H-pyrazol-5-yl)-4-chloro-6-cyclopropoxy-3-fluorobenzonitrile] displayed an IC50 of 0.027 µM. `C#Cc1cc(-c2cnn(C)c2-c2c(F)c(Cl)cc(N3CCCC3)c2C#N)cc2c(CN)n[nH]c(=O)c12` [Example 10, 2-(4-(4-(aminomethyl)-8-ethynyl-1-oxo-1,2-dihydrophthalazin-6-yl)-1-methyl-1H-pyrazol-5-yl)-4-chloro-3-fluoro-6-(pyrrolidin-1-yl)benzonitrile] returned an IC50 of 0.012 µM. As for `Cn1ncc(-c2cc(C3CC3)c3c(=O)[nH]nc(CN)c3c2)c1-c1c(F)c(Cl)cc(N2CCCC2)c1C#N` [Example 11, 2-(4-(4-(aminomethyl)-8-cyclopropyl-1-oxo-1,2-dihydrophthalazin-6-yl)-1-methyl-1H-pyrazol-5-yl)-4-chloro-3-fluoro-6-(pyrrolidin-1-yl)benzonitrile], the IC50 worked out at 0.184 µM.

In the case of `Cn1ncc(-c2cnc3c(=O)[nH]nc(CN)c3c2)c1-c1c(F)cc2ccccc2c1C#N` [Example 12, 2-(4-(5-(aminomethyl)-8-oxo-7,8-dihydropyrido[2,3-d]pyridazin-3-yl)-1-methyl-1H-pyrazol-5-yl)-3-fluoro-1-naphthalenenitrile], the midpoint of inhibition, the IC50, lay at 1.97 µM. Same read-out and setting: as for `Cn1ncc(-c2cc(-c3ccccc3)c3c(=O)[nH]nc(CN)c3c2)c1-c1c(F)c(Cl)cc(OC2CC2)c1C#N` [Example 13, 2-(4-(4-(aminomethyl)-1-oxo-8-phenyl-1,2-dihydrophthalazin-6-yl)-1-methyl-1H-pyrazol-5-yl)-4-chloro-6-cyclopropoxy-3-fluorobenzonitrile], the figure is 0.122 µM; as for `Cn1ncc(-c2ccc3c(=O)[nH]nc(CN)c3c2)c1-c1c(F)c(Cl)cc(N2CC(F)(F)C2)c1C#N` [Example 14, 2-(4-(4-(aminomethyl)-1-oxo-1,2-dihydrophthalazin-6-yl)-1-methyl-1H-pyrazol-5-yl)-4-chloro-6-(3,3-difluoroazetidin-1-yl)-3-fluorobenzonitrile], 0.014 µM. The same measure, in the same setting: under `Cn1ncc(-c2ccc3c(=O)[nH]nc(CN)c3c2)c1-c1c(F)c(N2CCOCC2)cc(OC2CC2)c1C#N` [Example 15, 2-(4-(4-(aminomethyl)-1-oxo-1,2-dihydrophthalazin-6-yl)-1-methyl-1H-pyrazol-5-yl)-6-cyclopropoxy-3-fluoro-4-morpholinobenzonitrile] stands 0.1 µM; under `Cn1ncc(-c2ccc3c(=O)[nH]nc(CN)c3c2)c1-c1c(F)c(N2CCCC2)cc(OC2CC2)c1C#N` [Example 16, 2-(4-(4-(aminomethyl)-1-oxo-1,2-dihydrophthalazin-6-yl)-1-methyl-1H-pyrazol-5-yl)-6-cyclopropoxy-3-fluoro-4-(pyrrolidin-1-yl)benzonitrile], 0.021 µM. `Cn1ncc(-c2ccc3c(=O)[nH]nc(CN)c3c2)c1-c1c(F)c(N2CCC2)cc(OC2CC2)c1C#N` [Example 17, 2-(4-(4-(aminomethyl)-1-oxo-1,2-dihydrophthalazin-6-yl)-1-methyl-1H-pyrazol-5-yl)-4-(azetidin-1-yl)-6-cyclopropoxy-3-fluorobenzonitrile] came in with an IC50 of 0.113 µM. The same measure, in the same setting: as for `CC1CCCN1c1cc(Cl)c(F)c(-c2c(-c3ccc4c(=O)[nH]nc(CN)c4c3)cnn2C)c1C#N` (stereo not drawn) [Example 20, 2-(4-(4-(aminomethyl)-1-oxo-1,2-dihydrophthalazin-6-yl)-1-methyl-1H-pyrazol-5-yl)-4-chloro-3-fluoro-6-(2-methylpyrrolidin-1-yl)benzonitrile], the figure is 0.061 µM. Same read-out and setting: under `Cn1ncc(-c2ccc3c(=O)[nH]nc(CN)c3c2)c1-c1c(F)c(Cl)cc(N2C3CCC2CC3)c1C#N` [Example 21, 2-(4-(4-(aminomethyl)-1-oxo-1,2-dihydrophthalazin-6-yl)-1-methyl-1H-pyrazol-5-yl)-6-(7-azabicyclo[2.2.1]heptan-7-yl)-4-chloro-3-fluorobenzonitrile] stands 0.161 µM. With `Cn1ncc(-c2ccc3c(=O)[nH]nc(CN)c3c2)c1-c1c(F)c(Cl)cc(N2CCCCC2)c1C#N` [Example 22, 2-(4-(4-(aminomethyl)-1-oxo-1,2-dihydrophthalazin-6-yl)-1-methyl-1H-pyrazol-5-yl)-4-chloro-3-fluoro-6-(piperidin-1-yl)benzonitrile], the IC50 turned out to be 0.116 µM.

`CN(C)C1CN(c2cc(OC3CC3)c(C#N)c(-c3c(-c4ccc5c(=O)[nH]nc(CN)c5c4)cnn3C)c2F)C1` [Example 24, 2-(4-(4-(aminomethyl)-1-oxo-1,2-dihydrophthalazin-6-yl)-1-methyl-1H-pyrazol-5-yl)-6-cyclopropoxy-4-(3-(dimethylamino)azetidin-1-yl)-3-fluorobenzonitrile] displayed an IC50 of 0.229 µM.

In the case of `Cn1ncc(-c2ccc3c(=O)[nH]nc(CN)c3c2)c1-c1c(F)c(N2CCC(O)C2)cc(OC2CC2)c1C#N` (stereo not drawn) [Example 25, 2-(4-(4-(aminomethyl)-1-oxo-1,2-dihydrophthalazin-6-yl)-1-methyl-1H-pyrazol-5-yl)-6-cyclopropoxy-3-fluoro-4-(3-hydroxypyrrolidin-1-yl)benzonitrile], it took 0.567 µM to reach half-maximal inhibition (IC50). Still for that read-out and setting: under `CN(C)C1CCN(c2cc(OC3CC3)c(C#N)c(-c3c(-c4ccc5c(=O)[nH]nc(CN)c5c4)cnn3C)c2F)C1` (stereo not drawn) [Example 27, 2-(4-(4-(aminomethyl)-1-oxo-1,2-dihydrophthalazin-6-yl)-1-methyl-1H-pyrazol-5-yl)-6-cyclopropoxy-4-(3-(dimethylamino)pyrrolidin-1-yl)-3-fluorobenzonitrile] stands 0.262 µM; under `Cn1ncc(-c2ccc3c(=O)[nH]nc(CN)c3c2)c1-c1c(F)c(Cl)cc(N2CC3(C2)CC(F)(F)C3)c1C#N` [Example 31, 2-(4-(4-(aminomethyl)-1-oxo-1,2-dihydrophthalazin-6-yl)-1-methyl-1H-pyrazol-5-yl)-4-chloro-6-(6,6-difluoro-2-azaspiro[3.3]heptan-2-yl)-3-fluorobenzonitrile], 0.093 µM; under `Cn1ncc(-c2ccc3c(=O)[nH]nc(CN)c3c2)c1-c1c(F)c(Cl)cc(N2CCC2)c1C#N` [Example 32, 2-(4-(4-(aminomethyl)-1-oxo-1,2-dihydrophthalazin-6-yl)-1-methyl-1H-pyrazol-5-yl)-6-(azetidin-1-yl)-4-chloro-3-fluorobenzonitrile], 0.057 µM.

`Cn1ncc(-c2ccc3c(=O)[nH]nc(CN)c3c2)c1-c1c(F)c(Cl)cc(N2CCC3(CC2)CC3(F)F)c1C#N` [Example 33, 2-(4-(4-(aminomethyl)-1-oxo-1,2-dihydrophthalazin-6-yl)-1-methyl-1H-pyrazol-5-yl)-4-chloro-6-(1,1-difluoro-6-azaspiro[2.5]octan-6-yl)-3-fluorobenzonitrile] yielded an IC50 of 0.057 µM. Still for that read-out and setting: as for `Cn1ncc(-c2ccc3c(=O)[nH]nc(CN)c3c2)c1-c1c(F)c(Cl)cc(N2CC(F)C2)c1C#N` [Example 34, 2-(4-(4-(aminomethyl)-1-oxo-1,2-dihydrophthalazin-6-yl)-1-methyl-1H-pyrazol-5-yl)-4-chloro-3-fluoro-6-(3-fluoroazetidin-1-yl)benzonitrile], the figure is 0.084 µM; as for `Cn1ncc(-c2ccc3c(=O)[nH]nc(CN)c3c2)c1-c1c(F)c(Cl)cc(N2CC(C)(O)C2)c1C#N` [Example 35, 2-(4-(4-(aminomethyl)-1-oxo-1,2-dihydrophthalazin-6-yl)-1-methyl-1H-pyrazol-5-yl)-4-chloro-3-fluoro-6-(3-hydroxy-3-methylazetidin-1-yl)benzonitrile], 0.922 µM. The same measure, in the same setting: as for `Cn1ncc(-c2ccc3c(=O)[nH]nc(CN)c3c2)c1-c1c(F)c(Cl)cc(OC2CC(F)(F)C2)c1C#N` [Example 37, 2-(4-(4-(aminomethyl)-1-oxo-1,2-dihydrophthalazin-6-yl)-1-methyl-1H-pyrazol-5-yl)-4-chloro-6-(3,3-difluorocyclobutoxy)-3-fluorobenzonitrile], the figure is 0.133 µM.

Another assay deals with HCT 116 MTAP wild-type cells. The assay is described as follows: Human colon cancer HCT116 cell proliferation inhibition test (MTAP wild-type cells, CellTiter-Glo, 6 days). In kind it is cell-based. As to conditions: HCT-116, 144 h. The method, then:
as §1
As for `Cn1ncc(-c2cc(C3CC3)c3c(=O)[nH]nc(CN)c3c2)c1-c1c(F)cc2ccccc2c1C#N` [Example 3, 2-(4-(4-(aminomethyl)-8-cyclopropyl-1-oxo-1,2-dihydrophthalazin-6-yl)-1-methyl-1H-pyrazol-5-yl)-3-fluoro-1-naphthalenenitrile], the IC50 turned out to be 1.05 µM. Still for that read-out and setting: as for `Cn1ncc(-c2ccc3c(=O)[nH]nc(CN)c3c2)c1-c1c(F)c(Cl)cc(N2CC(F)(F)C2)c1C#N` [Example 14, 2-(4-(4-(aminomethyl)-1-oxo-1,2-dihydrophthalazin-6-yl)-1-methyl-1H-pyrazol-5-yl)-4-chloro-6-(3,3-difluoroazetidin-1-yl)-3-fluorobenzonitrile], the figure is 2.35 µM; as for `Cn1ncc(-c2ccc3c(=O)[nH]nc(CN)c3c2)c1-c1c(F)c(N2CCCC2)cc(OC2CC2)c1C#N` [Example 16, 2-(4-(4-(aminomethyl)-1-oxo-1,2-dihydrophthalazin-6-yl)-1-methyl-1H-pyrazol-5-yl)-6-cyclopropoxy-3-fluoro-4-(pyrrolidin-1-yl)benzonitrile], 2.54 µM.
